{
  "source": "patent US20250108038A1",
  "about": "(priority 2023, published 2025)",
  "key": {"[1]": {"test": "Brain homogenate binding by equilibrium dialysis", "type": "in vitro ADME, mouse", "settings": "for % Recovery / % Unbound: mouse brain, 2 μM, 37° C.", "method": "(§1) Samples of spiked plasma and blank buffer (Dulbecco's phosphate-buffered saline, DPBS) and spiked brain homogenate and blank DPBS added to opposing sides of a dialysis membrane were collected from triplicate equilibrium dialysis chambers prior to (t=0) and following 1, 2, 4 and 6 hours of incubation at 37° C. […] The LC-MS/MS method(s) for analytes (Compound I-19, Compound A and Compound B) was cross-qualified for the analysis of the DPBS samples.\n(§2) A secondary stock solution of 200 μM (74.2 ug/mL) will be prepared in DMSO. This secondary stock solution will then be diluted 100-fold to 2 μM ([…]) with male CD-1 mouse plasma and brain homogenate (1:2 v/v brain:Dulbecco's phosphate buffered saline, pH 7-7.2) or buffer (DPBS).\n(§3) To 2.97 mL aliquots of thawed mouse plasma or brain homogenate warmed to 37° C., 30 ul aliquots of the secondary stock solution of the test compound will be added for final concentrations of 2 μM (0.742 ug/mL). An appropriate volume of warmed buffer (DPBS) will also be spiked with the test compound at a concentration of 2 μM ([…]). Triplicate aliquots (50 μL) of each spiked plasma, brain homogenate and buffer solution will be collected prior to dialysis into labeled 1.5 mL polypropylene tubes and then stored at approximately −80° C. until bioanalysis.\nEquilibrium dialysis will be performed in a 96-well Teflon dialysis unit (HTDialysis, Gales Ferry, CT). Each well of the unit consists of two chambers separated by a vertically aligned dialysis membrane (regenerated cellulose) with a molecular weight cut-off of 12-14 KDa. The equilibrium dialysis membranes will first be presoaked in deionized water for 30 min, then soaked in 20% ethanol for 20 min, followed by rinsing twice with deionized water.\nThe equilibrium dialysis apparatus will be assembled according to the manufacturer's directions. One chamber of each well will be immediately filled with 150 μL of blank buffer (to prevent membrane dehydration). Aliquots (150 μL) of spiked plasma, spiked brain homogenate and spiked buffer will then be added to the opposing chamber in each well. Three wells per time point per matrix will be used. The top of the plate will be sealed with an adhesive sealing film to prevent evaporation and maintain constant pH during incubation.\nThe dialysis apparatus will be incubated at 37° C. in an orbital shaker/incubator (Lab-Line Enviro Shaker) set at 75 rpm.\nFollowing 1, 2, 4 and 6 hours of incubation, samples from each plasma, brain homogenate and buffer compartment will be collected and the sample volume will be documented."}, "[2]": {"test": "Equilibrium dialysis control in DPBS and stability in DPBS, plasma and brain homogenate", "type": "in vitro ADME, mouse", "settings": "for % Recovery / % Unbound: DPBS", "method": "as §1, §2, §3"}, "CYP2C8 [3]": {"target": "T1, CYP2C8 (Homo sapiens, UniProt P10632)", "T1 sequence (P10632 1-490)": "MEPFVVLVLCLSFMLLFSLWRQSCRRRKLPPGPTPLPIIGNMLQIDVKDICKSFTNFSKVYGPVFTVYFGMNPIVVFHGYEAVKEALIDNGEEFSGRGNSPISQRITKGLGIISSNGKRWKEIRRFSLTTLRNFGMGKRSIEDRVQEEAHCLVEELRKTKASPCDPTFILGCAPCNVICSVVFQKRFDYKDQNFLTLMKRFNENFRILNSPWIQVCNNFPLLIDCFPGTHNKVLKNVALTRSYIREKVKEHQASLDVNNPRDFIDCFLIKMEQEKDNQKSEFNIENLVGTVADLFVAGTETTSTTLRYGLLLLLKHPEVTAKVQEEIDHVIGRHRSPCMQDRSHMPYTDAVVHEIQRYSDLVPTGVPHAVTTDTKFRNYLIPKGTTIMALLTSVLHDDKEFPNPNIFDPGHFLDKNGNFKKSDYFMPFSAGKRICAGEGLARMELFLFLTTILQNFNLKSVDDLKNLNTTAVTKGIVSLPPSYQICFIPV"}, "CYP2C19": {"target": "CYP2C19 (Homo sapiens, UniProt P33261)", "sequence (P33261 whole entry)": "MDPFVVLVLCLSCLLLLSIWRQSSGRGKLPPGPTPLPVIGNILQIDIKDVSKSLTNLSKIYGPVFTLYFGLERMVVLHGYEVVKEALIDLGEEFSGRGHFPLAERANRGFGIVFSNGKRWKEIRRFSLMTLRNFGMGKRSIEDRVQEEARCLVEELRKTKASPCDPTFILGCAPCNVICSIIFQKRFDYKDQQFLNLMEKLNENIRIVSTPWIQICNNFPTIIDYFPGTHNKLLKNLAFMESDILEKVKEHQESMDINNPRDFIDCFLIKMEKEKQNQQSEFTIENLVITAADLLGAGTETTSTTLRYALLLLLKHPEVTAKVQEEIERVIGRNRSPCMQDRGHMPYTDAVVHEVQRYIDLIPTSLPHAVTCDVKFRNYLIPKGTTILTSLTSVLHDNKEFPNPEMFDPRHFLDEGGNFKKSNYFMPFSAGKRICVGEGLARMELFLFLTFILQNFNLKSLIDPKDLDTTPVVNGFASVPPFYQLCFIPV"}, "CYP2C8 [4]": {"target": "T1, CYP2C8", "test": "in vitro", "settings": "both, pH 7.4"}, "[5]": {"settings": "dialysis time 1 h, 2 μM, 37° C."}, "[6]": {"settings": "dialysis time 2 h, 2 μM, 37° C."}, "[7]": {"settings": "dialysis time 4 h, 2 μM, 37° C."}, "[8]": {"settings": "dialysis time 6 h, 2 μM, 37° C."}},
  "data": [
    {"compound": "Clc1ccc(C2(OCC3OCCO3)c3ccccc3C3=NCCN32)cc1", "note": "(stereo not shown) [Compound I-19]", "values": [
      {"measurement": "% recovery, brain homogenate", "setting": "[1]; 6 hours of dialysis", "result": "51.3±2.58", "unit": "%"},
      {"measurement": "% Recovery", "setting": "[1]; dialysis time 1 h", "result": "87.8 ± 2.40", "unit": "%"},
      {"measurement": "% Unbound", "setting": "[1]; dialysis time 1 h", "result": 1.33, "unit": "%"},
      {"measurement": "% Recovery", "setting": "[1]; dialysis time 2 h", "result": "83.1 ± 1.58", "unit": "%"},
      {"measurement": "% Unbound", "setting": "[1]; dialysis time 2 h", "result": "1.64 ± 0.181", "unit": "%"},
      {"measurement": "% Recovery", "setting": "[1]; dialysis time 4 h", "result": "65.1 ± 4.05", "unit": "%"},
      {"measurement": "% Unbound", "setting": "[1]; dialysis time 4 h", "result": "2.46 ± 0.183", "unit": "%"},
      {"measurement": "% Recovery", "setting": "[1]; dialysis time 6 h", "result": "51.3 ± 2.58", "unit": "%"},
      {"measurement": "% Unbound", "setting": "[1]; dialysis time 6 h", "result": "3.31 ± 0.385", "unit": "%"},
      {"measurement": "Stability in DPBS, plasma and brain homogenate", "setting": "[2]; 2 μM, 37° C., 6 hours", "result": "unstable in all three matrices"},
      {"measurement": "% unbound in DPBS", "setting": "[2]; 2 μM, 6 hours of dialysis", "result": "94.0±5.12", "unit": "%"},
      {"measurement": "% recovery, DPBS alone", "setting": "[2]; 6 hours of dialysis", "result": "20.2±0.461", "unit": "%"},
      {"measurement": "% Recovery", "setting": "[2]; [5]", "result": "64.7 ± 3.04", "unit": "%"},
      {"measurement": "% Unbound", "setting": "[2]; [5]", "result": "40.3 ± 3.69", "unit": "%"},
      {"measurement": "% Recovery", "setting": "[2]; [6]", "result": "55.5 ± 2.08", "unit": "%"},
      {"measurement": "% Unbound", "setting": "[2]; [6]", "result": "81.9 ± 5.87", "unit": "%"},
      {"measurement": "% Recovery", "setting": "[2]; [7]", "result": "32.6 ± 1.05", "unit": "%"},
      {"measurement": "% Unbound", "setting": "[2]; [7]", "result": "91.1 ± 4.19", "unit": "%"},
      {"measurement": "% Recovery", "setting": "[2]; [8]", "result": "20.2 ± 0.461", "unit": "%"},
      {"measurement": "% Unbound", "setting": "[2]; [8]", "result": "94.0 ± 5.12", "unit": "%"},
      {"measurement": "Inhibition at Highest Test Article Concentration", "setting": "CYP2C8 [3]; 2C8, Amodiaquine, at 50 μM", "result": 73.7, "unit": "at 50 μM %"},
      {"measurement": "IC50", "setting": "CYP2C8 [3]; microsomes", "result": 2.38, "unit": "µM"},
      {"measurement": "Inhibition at Highest Test Article Concentration", "setting": "CYP2C19; 2C19, Mephenytoin, at 50 μM", "result": 83.2, "unit": "at 50 μM %"},
      {"measurement": "IC50", "setting": "CYP2C19; microsomes", "result": 17.3, "unit": "µM"}
    ]},
    {"compound": "OC1(c2ccc(Cl)cc2)c2ccccc2C2=NCCN21", "note": "(stereo not shown) [Compound A, 5-(4-chlorophenyl)-2,3-dihydroimidazo[1,2-b]isoindol-5-ol, reference compound]", "values": [
      {"measurement": "inhibition at 10 µM", "setting": "CYP2C8 [4]", "result": 48.9, "unit": "%"}
    ]}
  ]
}
